Measured values taken from patent publication US5059612A, “Anti-dementia drug” (priority 1989, dated 1991).
Read-outs that look alike come from different tables or passages of the source.

Assays:
[1] = test system: memory and learning disorders induced by scopolamine; experiment: 3-panel runway device: activity against memory and learning disorders induced by scopolamine; type: in vivo, rat
Procedure: A 3-panel runway device (length: 175 cm, width: 36 cm and height: 25 cm) comprises a start box, four gateways equipped with three-panel gates and a goal box in which feed are put as the reward. The panel gates were designed so that only one of three panel gates in each gateway might be passable. Training of hungry rats to go out of the start box, reach the goal box and take the feed was made by continuous 6 sessions in 2 minute intervals. The training was carried out every day with the passable panel gate being varied every day. In the test, (1) time taken for the rat to reach the goal box and take the feed after it left the start box, and (2) the number of incorrect choices that the rat made trying to pass the impassable gate were recorded and measured in each session. Rats satisfying for consecutive 3 days the criterion that the total time for 6 sessions in one day was within 60 seconds, the total number of incorrect choices was under 12 and the number of incorrect responses in sessions 2 to 6 was not greater than 8 were estimated to have completely learned. The rats are used for the following test.

[2] = test system: space recognition disorders induced by scopolamine; experiment: Test on memory and study of rat using radial maize (scopolamine-induced space recognition disorder); type: in vivo
Description: Test on memory and study of rat using radial maize
Rats under feed control were put at the central platform (diameter: 25 cm) of an 8-way radial maize (length and width of arm: 48 cm and 10 cm, 40 cm, height from the ground) and trained until they could efficiently take the feed put on the tip of the arm. Numbers of correct choices for the arms where the rats reached for the first time, number of incorrect choices for the arms where the rats reached two or more times and running time until completion of the session were measured for 10 minutes at maximum. When the results with not less than 7 correct choices were shown in 3 continuous sessions it was estimated that acquirement of space recognition was completed. Space recognition disorder was induced in the rats by administering 0.5 mg/kg of scopolamine (i.p., 30 minutes before the session) to study each activity of (±) rolipram, (+) rolipram and (-) rolipram (all administered p.o., 60 minutes before the session).

[3] = test system: memory and learning deficits; experiment: overall conclusion from the experimental results using mice and rats; type: in vivo
[4] = test system: mouse in oxygen-short state; experiment: Activity on survival time of mouse in oxygen-short state; type: in vivo; conditions: for Survival Time: 30 minutes before carbon dioxide, Control 195.8 ± 3.7
Procedure: Activity on survival time of mouse in oxygen-short state
Mice were put in a plastic box of 150 cm each in length, width and height, and carbon dioxide was injected from a lower inlet at a rate of 500 ml/min. The period from the start of injection to the respiratory standstill of mice was counted as the survival time. (±) Rolipram, (+) rolipram, and (-) rolipram were all intraperitoneally administered to mice 30 minutes before carbon dioxide was loaded.

[5] = mouse acute toxicity test of rolipram; conditions: in vivo, read-out: ED50 Value (acute toxicity)
Description: (§1) The results of mouse acute toxicity test of rolipram are as follows.

[6] = test system: mouse; experiment: mouse acute toxicity test of rolipram; conditions: in vivo
Description: as §1

[7] = test system: cerebral ischemia-induced learning and memory disorders; experiment: 3-panel runway device: effect on cerebral ischemia-induced learning and memory disorders; type: in vivo, rat; conditions: for number of incorrect responses, Session 1 / number of incorrect responses, Session 2 / number of incorrect responses, Session 3 / number of incorrect responses, Session 4 / number of incorrect responses, Session 5 / number of incorrect responses, Session 6: cerebral ischemia; for minimal effective dose: ip, i.p., read-out: dose improving the disorders induced by cerebral ischemia
Procedure: A 3-panel runway device (length: 175 cm, width: 36 cm and height: 25 cm) comprises a start box, four gateways equipped with three-panel gates and a goal box in which feed are put as the reward. The panel gates were designed so that only one of three panel gates in each gateway might be passable. Training of hungry rats to go out of the start box, reach the goal box and take the feed was made by continuous 6 sessions in 2 minute intervals. The training was carried out every day with the passable panel gate being varied every day. […] The rats are used for the following test. According to the method of Pulsinelli et al., the both vertebral arteries of rat were burnt and cut under anesthesia with pentobarbital. After 24 hours, the whole carotid artery on both sides was blocked for 5 minutes under no anesthesia.

[8] = 0.1 mg/kg i.p. + scopolamine 0.56 mg/kg
[9] = 0.02 mg/kg p.o., 60 minutes before session, + scopolamine 0.5 mg/kg i.p.
[10] = 1 mg/kg i.p. + scopolamine 0.56 mg/kg
[11] = 10 mg/kg p.o., 60 minutes before session, + scopolamine 0.5 mg/kg i.p.
[12] = 0.032 mg/kg i.p. + scopolamine 0.56 mg/kg
[13] = 0.01 mg/kg p.o., 60 minutes before session, + scopolamine 0.5 mg/kg i.p.
[14] = scopolamine alone 0.56 mg/kg i.p.

COc1ccc(C2CNC(=O)C2)cc1OC1CCCC1 (racemic) [(±) Rolipram]
number of incorrect responses, Session 1 [1, 8]: 5.67
number of incorrect responses, Session 2 [1, 8]: 3.00
number of incorrect responses, Session 3 [1, 8]: 1.67
number of incorrect responses, Session 4 [1, 8]: 1.00
number of incorrect responses, Session 5 [1, 8]: 1.00
number of incorrect responses, Session 6 [1, 8]: 1.17
minimal effective dose ([1]; Rattus norvegicus, ip, rat, i.p., read-out: dose inhibiting the increase in the number of incorrect responses induced by scopolamine): 0.1 mg/kg
Number of Correct Choice [2, 9]: 6.9 ± 0.2
Number of Incorrect Choice [2, 9]: 2.3 ± 1.1
minimal effective dose ([2]; Rattus norvegicus, po, rat, p.o., read-out: dose showing the activity of improving space recognition disorders induced by scopolamine): 0.02 mg/kg
activity of improving memory and learning deficits [3]: showed the activity of improving memory and learning deficits
potency order in improving memory and learning deficits [3]: more potent order of (-) rolipram, (±) rolipram and (+) rolipram
Survival Time ([4]; 1.0 mg/kg i.p.): 220.3 ± 6.9 s
minimal effective dose ([4]; Mus musculus, ip, mouse, i.p., read-out: dose showing the action of prolonging the survival time): 1 mg/kg
LD50 ([5]; ip): 1500 mg/kg
LD50 ([5]; po): 4000 mg/kg
safety [6]: highly safe
number of incorrect responses, Session 1 ([7]; 0.1 mg/kg i.p.): 4.25
number of incorrect responses, Session 2 ([7]; 0.1 mg/kg i.p.): 3.00
number of incorrect responses, Session 3 ([7]; 0.1 mg/kg i.p.): 2.88
number of incorrect responses, Session 4 ([7]; 0.1 mg/kg i.p.): 1.88
number of incorrect responses, Session 5 ([7]; 0.1 mg/kg i.p.): 1.38
number of incorrect responses, Session 6 ([7]; 0.1 mg/kg i.p.): 1.13
minimal effective dose ([7]; rat): 0.1 mg/kg

COc1ccc(C2CNC(=O)C2)cc1OC1CCCC1 (single isomer, unassigned; (+)) [(+) Rolipram]
number of incorrect responses, Session 1 [1, 10]: 4.00
number of incorrect responses, Session 2 [1, 10]: 4.17
number of incorrect responses, Session 3 [1, 10]: 3.00
number of incorrect responses, Session 4 [1, 10]: 2.00
number of incorrect responses, Session 5 [1, 10]: 1.83
number of incorrect responses, Session 6 [1, 10]: 1.67
dose inhibiting the increase in the number of incorrect responses induced by scopolamine ([1]; rat, i.p.): 1 mg/kg
Number of Correct Choice [2, 11]: 7.2 ± 0.3
Number of Incorrect Choice [2, 11]: 2.3 ± 1.6
dose showing the activity of improving space recognition disorders induced by scopolamine ([2]; rat, p.o.): 10 mg/kg
activity of improving memory and learning deficits [3]: showed the activity of improving memory and learning deficits
potency order in improving memory and learning deficits [3]: more potent order of (-) rolipram, (±) rolipram and (+) rolipram
Survival Time ([4]; 3.0 mg/kg i.p.): 217.2 ± 5.3 s
dose showing the action of prolonging the survival time ([4]; mouse, i.p.): 3.0 mg/kg
LD50 ([5]; ip): > 2300 mg/kg
LD50 ([5]; po): > 4000 mg/kg
safety [6]: highly safe
number of incorrect responses, Session 1 ([7]; 1 mg/kg i.p.): 5.33
number of incorrect responses, Session 2 ([7]; 1 mg/kg i.p.): 3.67
number of incorrect responses, Session 3 ([7]; 1 mg/kg i.p.): 2.00
number of incorrect responses, Session 4 ([7]; 1 mg/kg i.p.): 2.83
number of incorrect responses, Session 5 ([7]; 1 mg/kg i.p.): 1.67
number of incorrect responses, Session 6 ([7]; 1 mg/kg i.p.): 1.50
improvement of the disorders induced by cerebral ischemia ([7]; rat, 1 mg/kg i.p.): no improvement

COc1ccc(C2CNC(=O)C2)cc1OC1CCCC1 (single isomer, unassigned; (-)) [(-) Rolipram]
number of incorrect responses, Session 1 [1, 12]: 4.50
number of incorrect responses, Session 2 [1, 12]: 2.67
number of incorrect responses, Session 3 [1, 12]: 1.50
number of incorrect responses, Session 4 [1, 12]: 1.50
number of incorrect responses, Session 5 [1, 12]: 1.17
number of incorrect responses, Session 6 [1, 12]: 0.50
dose inhibiting the increase in the number of incorrect responses induced by scopolamine ([1]; rat, i.p.): 0.032 mg/kg
Number of Correct Choice [2, 13]: 6.9 ± 0.3
Number of Incorrect Choice [2, 13]: 3.2 ± 1.1
dose showing the activity of improving space recognition disorders induced by scopolamine ([2]; rat, p.o.): 0.01 mg/kg
activity of improving memory and learning deficits [3]: showed the activity of improving memory and learning deficits
potency order in improving memory and learning deficits [3]: more potent order of (-) rolipram, (±) rolipram and (+) rolipram
Survival Time ([4]; 0.3 mg/kg i.p.): 219.8 ± 6.3 s
dose showing the action of prolonging the survival time ([4]; mouse, i.p.): 0.3 mg/kg
safety [6]: highly safe
number of incorrect responses, Session 1 ([7]; 0.032 mg/kg i.p.): 5.50
number of incorrect responses, Session 2 ([7]; 0.032 mg/kg i.p.): 2.00
number of incorrect responses, Session 3 ([7]; 0.032 mg/kg i.p.): 2.00
number of incorrect responses, Session 4 ([7]; 0.032 mg/kg i.p.): 1.33
number of incorrect responses, Session 5 ([7]; 0.032 mg/kg i.p.): 1.00
number of incorrect responses, Session 6 ([7]; 0.032 mg/kg i.p.): 0.83
minimal effective dose ([7]; rat): 0.032 mg/kg

CN1[C@@H]2C[C@@H](OC(=O)[C@H](CO)c3ccccc3)C[C@H]1[C@@H]1O[C@@H]12 [Scopolamine, scopolamine]
number of incorrect responses, Session 1 [1, 14]: 6.21
number of incorrect responses, Session 2 [1, 14]: 4.74
number of incorrect responses, Session 3 [1, 14]: 3.24
number of incorrect responses, Session 4 [1, 14]: 3.11
number of incorrect responses, Session 5 [1, 14]: 2.68
number of incorrect responses, Session 6 [1, 14]: 2.32
Number of Incorrect Choice ([2]; scopolamine alone 0.5 mg/kg i.p., Control 0.3 ± 0.1): 7.1 ± 0.9
Number of Correct Choice ([2]; scopolamine alone 0.5 mg/kg i.p., Control 7.9 ± 0.2): 5.9 ± 0.2
